Test results taken from paper PMC11320178 (Chemical Science, 2024).
Where no end group is shown, it is not given here.

Assays:
[1] = Stability of the cyclic peptide against ROS environment; assay type: physicochemical; conditions: P1 ∼100 μM, ∼150 μM H2O2 in PBS pH 7.4, after 6 h, LC-MS
[2] = assay type: physicochemical; conditions: equimolar semicarbazide derivative (∼100 μM) in PBS pH 7.4, 20 min, LC-MS
[3] = pH 2

CIITRPC (also: sidechain bridge or staple (positions not given here)) [P1]
Stability in H2O2 [1]: remarkable stability
Linearization by semicarbazide (diazaborine conjugate formation) [2]: linearized
Stability under a wide range of pH values (no complete dissociation of the thiazolidine ring) [3]: high stability
